Laboratory results: ChEMBL document CHEMBL3046470, “Design, synthesis, anti-inflammatory, analgesic screening, and molecular docking of some novel 2-pyridyl (3H)-quinazolin-4-one derivatives” (2013)
Active and inactive are the calls of the source. The calls are words filed in the database; no cut-off is given here.

Assays:
Rattus norvegicus [1] = experiment: Anti-inflammatory activity against Rattus norvegicus Albino Sprague-Dawley (rat) assessed as inhibition of carrageenan-induced paw edema at 50 mg/kg, ip administered 30 min prior to carrageenan injection measured after 4 hr by plethysmometer analysis; format: functional, organism-based; design: dose 50 mg/kg
Rattus norvegicus [2] = experiment: Anti-inflammatory activity against Rattus norvegicus albino Sprague-Dawley (rat) assessed as inhibition of carrageenan-induced paw edema at 50 mg/kg, ip administered 30 min prior to carrageenan injection measured after 3 hr by plethysmometer analysis; format: functional, organism-based; design: dose 50 mg/kg
Rattus norvegicus [3] = experiment: Anti-inflammatory activity against Rattus norvegicus Albino Sprague-Dawley (rat) assessed as inhibition of carrageenan-induced paw edema at 50 mg/kg, ip administered 30 min prior to carrageenan injection measured after 1 hr by plethysmometer analysis; format: functional; details: for inhibition in vivo at 50 mg/kg: route intraperitoneal
Rattus norvegicus [4] = experiment: Anti-inflammatory activity against Rattus norvegicus Albino Sprague-Dawley (rat) assessed as inhibition of carrageenan-induced paw edema at 50 mg/kg, ip administered 30 min prior to carrageenan injection measured after 2 hr by plethysmometer analysis; format: functional; details: for inhibition in vivo at 50 mg/kg: route intraperitoneal
Rattus norvegicus [5] = experiment: Anti-inflammatory activity against Rattus norvegicus Albino Sprague-Dawley (rat) assessed as inhibition of carrageenan-induced paw edema administered 30 min prior to carrageenan injection measured after 4 hr by plethysmometer analysis; format: functional
Mus musculus [6] = experiment: Analgesic activity in Mus musculus Swiss (mouse) assessed as inhibition of acetic acid-induced writhing administered 1 hr prior to acetic acid injection measured after 5 min for 30 min; format: functional; details: read-out: PD50
Mus musculus [7] = experiment: Analgesic activity in Mus musculus Swiss (mouse) assessed as inhibition of acetic acid-induced writhing at 50 mg/kg, sc administered 1 hr prior to acetic acid injection measured after 5 min for 30 min; format: functional; details: route subcutaneous
Rattus norvegicus [8] = experiment: Anti-inflammatory activity against Rattus norvegicus Albino Sprague-Dawley (rat) assessed as inhibition of carrageenan-induced paw edema at 18 mg/kg, ip administered 30 min prior to carrageenan injection measured after 1 hr by plethysmometer analysis; format: functional; details: route intraperitoneal

| SMILES | inhibition (Rattus norvegicus [1]) | inhibition (Rattus norvegicus [2]) | inhibition in vivo at 50 mg/kg (Rattus norvegicus [3]) [%] | inhibition (Rattus norvegicus [4]) | ED50 (Rattus norvegicus [5]) [mg/kg] | inhibition (Rattus norvegicus [3]) | inhibition in vivo at 50 mg/kg (Rattus norvegicus [4]) [%] | ED50 (Mus musculus [6]) [mg/kg] | inhibition in vivo at 50 mg/kg (Mus musculus [7]) [%] | inhibition in vivo at 18 mg/kg (Rattus norvegicus [8]) [%] |
| --- | --- | --- | --- | --- | --- | --- | --- | --- | --- | --- |
| O=C(/C=C/c1ccc(Cl)cc1)c1ccc(-n2c(-c3ccncc3)nc3ccc(Br)cc3c2=O)cc1 | Active | Active | 73.8 | Active |  |  |  |  |  |  |
| O=C(/C=C/c1ccc([N+](=O)[O-])cc1)c1ccc(-n2c(-c3ccncc3)nc3ccc(Br)cc3c2=O)cc1 | Active | Active |  |  | 22.3 | Active | 70.5 |  |  |  |
| COc1ccc(C2CC(c3ccc(-n4c(-c5ccncc5)nc5ccc(Br)cc5c4=O)cc3)=NN2C(C)=O)cc1 (centres undefined) | Active | Active | 64.5 | Active |  |  |  |  |  |  |
| Nc1nc(-c2ccc(-n3c(-c4ccncc4)nc4ccc(Br)cc4c3=O)cc2)cs1 | Active | Active |  |  |  | Active | 62.8 |  |  |  |
| O=c1c2cc(Br)ccc2nc(-c2ccncc2)n1-c1ccc(-c2csc(O)n2)cc1 | Active | Active |  |  |  | Active | 67.3 | 15 | 75.7 |  |
| O=C1N=C(c2ccc(-n3c(-c4ccncc4)nc4ccc(Br)cc4c3=O)cc2)CC(c2ccc(Cl)cc2)N1 (centres undefined) | Active | Active | 62.3 | Active |  |  |  |  | 75.4 |  |
| COc1ccc2c(c1)c(CC(=O)O)c(C)n2C(=O)c1ccc(Cl)cc1 [INDOMETHACIN] |  |  |  |  |  |  |  |  |  | 62.9 |
